In EPA's CvTdb concentration-time database:

How the values were obtained:
[1] = test system: Rat; experiment: concentration in liver after dosing; conditions: 144 h; dosed: Tamoxifen; 300 ug/mL; oral; Female; F344
[2] = test system: Rat; experiment: concentration in liver after dosing; conditions: 72 h; dosed: Tamoxifen citrate; 300 ug/mL; oral; Female; F344
[3] = test system: Rat; experiment: concentration in adipose after dosing; conditions: 144 h; dosed: Tamoxifen citrate; 300 ug/mL; oral; Female; F344
[4] = test system: Rat; experiment: concentration in liver after dosing; conditions: 144 h; dosed: Tamoxifen citrate; 100 ug/mL; oral; Female; F344
[5] = test system: Rat; experiment: concentration in plasma after dosing; conditions: dosed: Tamoxifen, 300 ug/mL, oral, Female, F344
[6] = test system: Rat; experiment: concentration in adipose after dosing; conditions: oral, Female, F344
[7] = test system: Rat; experiment: concentration in plasma after dosing; conditions: dosed: Tamoxifen citrate, 300 ug/mL, oral, Female, F344
[8] = test system: Rat; experiment: concentration in plasma after dosing; conditions: dosed: Tamoxifen citrate, 300 ug/mL, oral, Female, F344; remark: listed apart in the source
[9] = test system: Rat; experiment: concentration in liver after dosing; conditions: 144 h; dosed: Tamoxifen; 300 ug/mL; oral; Female; F344; remark: listed apart in the source
[10] = test system: Rat; experiment: concentration in liver after dosing; conditions: oral, Female, F344
[11] = test system: Rat; experiment: concentration in liver after dosing; conditions: 144 h; dosed: Tamoxifen citrate; 300 ug/mL; oral; Female; F344
[12] = test system: Rat; experiment: concentration in adipose after dosing; conditions: 144 h; dosed: Tamoxifen; 300 ug/mL; oral; Female; F344
[13] = test system: Rat; experiment: concentration in adipose after dosing; conditions: 144 h; dosed: Tamoxifen citrate; 300 ug/mL; oral; Female; F344; remark: listed apart in the source
[14] = test system: Rat; experiment: concentration in plasma after dosing; conditions: 300 ug/mL, oral, Female, F344
[15] = test system: Rat; experiment: concentration in adipose after dosing; conditions: 72 h; dosed: Tamoxifen; 300 ug/mL; oral; Female; F344
[16] = test system: Rat; experiment: concentration in adipose after dosing; conditions: 72 h; dosed: Tamoxifen citrate; 300 ug/mL; oral; Female; F344
[17] = test system: Rat; experiment: concentration in adipose after dosing; conditions: 144 h; dosed: Tamoxifen citrate; 300 ug/mL; oral; Female; F344; remark: listed apart in the source
[18] = test system: Rat; experiment: concentration in adipose after dosing; conditions: 72 h; dosed: Tamoxifen citrate; 100 ug/mL; oral; Female; F344
[19] = test system: Rat; experiment: concentration in liver after dosing; conditions: 72 h; dosed: Tamoxifen citrate; 300 ug/mL; oral; Female; F344; remark: listed apart in the source
[20] = test system: Rat; experiment: concentration in adipose after dosing; conditions: 144 h; dosed: Tamoxifen; 300 ug/mL; oral; Female; F344; remark: listed apart in the source
[21] = test system: Rat; experiment: concentration in plasma after dosing; conditions: dosed: Tamoxifen, 300 ug/mL, oral, Female, F344; remark: listed apart in the source
[22] = test system: Rat; experiment: concentration in liver after dosing; conditions: 144 h; dosed: Tamoxifen; 300 ug/mL; oral; Female; F344; remark: listed apart in the source
[23] = test system: Rat; experiment: concentration in liver after dosing; conditions: 144 h; dosed: Tamoxifen; 300 ug/mL; oral; Female; F344; remark: listed apart in the source
[24] = test system: Rat; experiment: concentration in adipose after dosing; conditions: 144 h; dosed: Tamoxifen; 300 ug/mL; oral; Female; F344; remark: listed apart in the source
[25] = test system: Rat; experiment: concentration in plasma after dosing; conditions: dosed: Tamoxifen, 300 ug/mL, oral, Female, F344; remark: listed apart in the source
[26] = test system: Rat; experiment: concentration in adipose after dosing; conditions: 72 h; dosed: Tamoxifen; 300 ug/mL; oral; Female; F344; remark: listed apart in the source
[27] = test system: Rat; experiment: concentration in adipose after dosing; conditions: 144 h; dosed: Tamoxifen; 300 ug/mL; oral; Female; F344; remark: listed apart in the source
[28] = test system: Rat; experiment: concentration in liver after dosing; conditions: 144 h; dosed: Tamoxifen citrate; 100 ug/mL; oral; Female; F344; remark: listed apart in the source
[29] = test system: Rat; experiment: concentration in plasma after dosing; conditions: dosed: Tamoxifen citrate, 300 ug/mL, oral, Female, F344; remark: listed apart in the source
[30] = test system: Rat; experiment: concentration in liver after dosing; conditions: 144 h; dosed: Tamoxifen citrate; 300 ug/mL; oral; Female; F344; remark: listed apart in the source
[31] = test system: Rat; experiment: concentration in adipose after dosing; conditions: 144 h; dosed: Tamoxifen; 300 ug/mL; oral; Female; F344; remark: listed apart in the source
[32] = test system: Rat; experiment: concentration in liver after dosing; conditions: 144 h; dosed: Tamoxifen citrate; 300 ug/mL; oral; Female; F344; remark: listed apart in the source
[33] = test system: Rat; experiment: concentration in adipose after dosing; conditions: 144 h; dosed: Tamoxifen citrate; 300 ug/mL; oral; Female; F344; remark: listed apart in the source
[34] = test system: Rat; experiment: concentration in liver after dosing; conditions: 144 h; dosed: Tamoxifen citrate; 300 ug/mL; oral; Female; F344; remark: listed apart in the source
[35] = test system: Rat; experiment: concentration in adipose after dosing; conditions: 72 h; dosed: Tamoxifen citrate; 300 ug/mL; oral; Female; F344; remark: listed apart in the source
[36] = test system: Rat; experiment: concentration in adipose after dosing; conditions: 144 h; dosed: Tamoxifen citrate; 100 ug/mL; oral; Female; F344
[37] = test system: Rat; experiment: concentration in adipose after dosing; conditions: 72 h; dosed: Tamoxifen citrate; 100 ug/mL; oral; Female; F344; remark: listed apart in the source
[38] = test system: Rat; experiment: concentration in liver after dosing; conditions: 144 h; dosed: Tamoxifen; 300 ug/mL; oral; Female; F344; remark: listed apart in the source
[39] = test system: Rat; experiment: concentration in adipose after dosing; conditions: 144 h; dosed: Tamoxifen citrate; 300 ug/mL; oral; Female; F344; remark: listed apart in the source
[40] = test system: Rat; experiment: concentration in liver after dosing; conditions: 144 h; dosed: Tamoxifen citrate; 300 ug/mL; oral; Female; F344; remark: listed apart in the source
[41] = test system: Rat; experiment: concentration in liver after dosing; conditions: 72 h; dosed: Tamoxifen citrate; 100 ug/mL; oral; Female; F344
[42] = test system: Rat; experiment: concentration in liver after dosing; conditions: 72 h; dosed: Tamoxifen; 300 ug/mL; oral; Female; F344
[43] = test system: Rat; experiment: concentration in liver after dosing; conditions: 72 h; dosed: Tamoxifen citrate; 100 ug/mL; oral; Female; F344; remark: listed apart in the source
[44] = test system: Rat; experiment: concentration in liver after dosing; conditions: 72 h; dosed: Tamoxifen; 300 ug/mL; oral; Female; F344; remark: listed apart in the source
[45] = 72 h, dosed: Tamoxifen citrate, 100 ug/mL
[46] = 72 h, dosed: Tamoxifen citrate, 300 ug/mL
[47] = 72 h, dosed: Tamoxifen, 300 ug/mL
[48] = 144 h, dosed: Tamoxifen citrate, 100 ug/mL
[49] = 144 h, dosed: Tamoxifen citrate, 300 ug/mL
[50] = 144 h, dosed: Tamoxifen, 300 ug/mL

`CC/C(=C(\c1ccccc1)c1ccc(OCCN(C)C)cc1)c1ccccc1` [Tamoxifen] showed a concentration in liver [1] of 58.4 ng/g, a concentration in liver [2] of 30.5 ng/g and a concentration in adipose [3] of 44.5 ng/mL. The concentration in liver [4] was 13.9 ng/g, the concentration in plasma ([5]; 0.25 h) was 21.9 ng/mL and the concentration in plasma ([5]; 0.5 h) was 10.2 ng/mL. The concentration in plasma ([5]; 2 h) was 6.23 ng/mL, the concentration in plasma ([5]; 4 h) was 4.51 ng/mL and the concentration in plasma ([5]; 12 h) was 2.66 ng/mL. The concentration in adipose [6, 45] was 7.52 ng/mL, the concentration in adipose [6, 46] was 33.6 ng/mL and the concentration in adipose [6, 47] was 33.6 ng/mL. It also gave a concentration in adipose [6, 48] of 9.5 ng/mL, a concentration in adipose [6, 49] of 31.5 ng/mL and a concentration in adipose [6, 50] of 31.5 ng/mL. The concentration in plasma ([7]; 0.25 h) was 15.4 ng/mL, the concentration in plasma ([7]; 0.5 h) was 12.2 ng/mL and the concentration in plasma ([7]; 1 h) was 9.33 ng/mL. For the same compound, the concentration in plasma ([7]; 2 h) was 8.41 ng/mL, the concentration in plasma ([7]; 4 h) was 4.44 ng/mL and the concentration in plasma ([8]; 0.25 h) was 21.9 ng/mL. The concentration in plasma ([8]; 0.5 h) was 10.2 ng/mL, the concentration in plasma ([8]; 2 h) was 6.23 ng/mL and the concentration in plasma ([8]; 4 h) was 4.51 ng/mL. The concentration in plasma ([8]; 12 h) was 2.66 ng/mL, the concentration in liver [9] was 25.3 ng/g and the concentration in liver [10, 45] was 7.61 ng/g. For the same compound, the concentration in liver [10, 46] was 39.5 ng/g, the concentration in liver [10, 47] was 39.5 ng/g and the concentration in liver [10, 48] was 13.4 ng/g. It also gave a concentration in liver [10, 49] of 48.3 ng/g, a concentration in liver [10, 50] of 48.3 ng/g and a concentration in liver [11] of 25.3 ng/g. It also gave a concentration in adipose [12] of 44.5 ng/mL, a concentration in adipose [13] of 40.1 ng/mL and a concentration in plasma ([14]; 0 h, dosed: Tamoxifen citrate) of 2.13 ng/mL. For the same compound, the concentration in plasma ([14]; 0 h, dosed: Tamoxifen) was 2.13 ng/mL, the concentration in plasma ([14]; 0.25 h, dosed: Tamoxifen citrate) was 3.18 ng/mL and the concentration in plasma ([14]; 0.25 h, dosed: Tamoxifen) was 3.18 ng/mL. The concentration in plasma ([14]; 0.5 h, dosed: Tamoxifen citrate) was 2.95 ng/mL, the concentration in plasma ([14]; 0.5 h, dosed: Tamoxifen) was 2.95 ng/mL and the concentration in plasma ([14]; 1 h, dosed: Tamoxifen citrate) was 2.9 ng/mL. The concentration in plasma ([14]; 1 h, dosed: Tamoxifen) was 2.9 ng/mL, the concentration in plasma ([14]; 2 h, dosed: Tamoxifen citrate) was 4.38 ng/mL and the concentration in plasma ([14]; 2 h, dosed: Tamoxifen) was 4.38 ng/mL. It also gave a concentration in plasma ([14]; 4 h, dosed: Tamoxifen citrate) of 4.12 ng/mL, a concentration in plasma ([14]; 4 h, dosed: Tamoxifen) of 4.12 ng/mL and a concentration in plasma ([14]; 8 h, dosed: Tamoxifen citrate) of 4.6 ng/mL. For the same compound, the concentration in plasma ([14]; 8 h, dosed: Tamoxifen) was 4.6 ng/mL, the concentration in plasma ([14]; 16 h, dosed: Tamoxifen citrate) was 2.42 ng/mL and the concentration in plasma ([14]; 16 h, dosed: Tamoxifen) was 2.42 ng/mL. It also gave a concentration in adipose [15] of 27.4 ng/mL, a concentration in adipose [16] of 27.4 ng/mL and a concentration in adipose [17] of 30.4 ng/mL. For the same compound, the concentration in adipose [18] was 5.58 ng/mL, the concentration in liver [19] was 21.1 ng/g and the concentration in adipose [20] was 30.4 ng/mL. The concentration in plasma ([21]; 0.25 h) was 11.9 ng/mL, the concentration in plasma ([21]; 0.5 h) was 8.96 ng/mL and the concentration in plasma ([21]; 1 h) was 7.35 ng/mL. It also gave a concentration in plasma ([21]; 2 h) of 5.81 ng/mL, a concentration in liver [22] of 37.2 ng/g and a concentration in liver [23] of 239 ng/g. It also gave a concentration in adipose [24] of 40.1 ng/mL, a concentration in plasma ([25]; 0.25 h) of 15.4 ng/mL and a concentration in plasma ([25]; 0.5 h) of 12.2 ng/mL. It also gave a concentration in plasma ([25]; 1 h) of 9.33 ng/mL, a concentration in plasma ([25]; 2 h) of 8.41 ng/mL and a concentration in plasma ([25]; 4 h) of 4.44 ng/mL. The concentration in adipose [26] was 31.2 ng/mL, the concentration in adipose [27] was 151 ng/mL and the concentration in liver [28] was 16.3 ng/g. For the same compound, the concentration in plasma ([29]; 0.25 h) was 11.9 ng/mL, the concentration in plasma ([29]; 0.5 h) was 8.96 ng/mL and the concentration in plasma ([29]; 1 h) was 7.35 ng/mL. For the same compound, the concentration in plasma ([29]; 2 h) was 5.81 ng/mL, the concentration in liver [30] was 22.8 ng/g and the concentration in adipose [31] was 55.7 ng/mL. For the same compound, the concentration in liver [32] was 239 ng/g, the concentration in adipose [33] was 55.7 ng/mL and the concentration in liver [34] was 37.2 ng/g. For the same compound, the concentration in adipose [35] was 31.2 ng/mL, the concentration in adipose [36] was 10.4 ng/mL and the concentration in adipose [37] was 14.8 ng/mL. It also gave a concentration in liver [38] of 22.8 ng/g, a concentration in adipose [39] of 151 ng/mL and a concentration in liver [40] of 58.4 ng/g. It also gave a concentration in liver [41] of 13 ng/g, a concentration in liver [42] of 21.1 ng/g and a concentration in liver [43] of 5.85 ng/g. For the same compound, the concentration in liver [44] was 30.5 ng/g.
